Activity calls are given as the source filed them.
Assays:
[1] = biological target: T1, Bifunctional epoxide hydrolase 2 (Homo sapiens) (UniProt P34913); experiment: Inhibition of sEH (unknown origin) at 100 nM relative to control
T1 sequence (whole entry): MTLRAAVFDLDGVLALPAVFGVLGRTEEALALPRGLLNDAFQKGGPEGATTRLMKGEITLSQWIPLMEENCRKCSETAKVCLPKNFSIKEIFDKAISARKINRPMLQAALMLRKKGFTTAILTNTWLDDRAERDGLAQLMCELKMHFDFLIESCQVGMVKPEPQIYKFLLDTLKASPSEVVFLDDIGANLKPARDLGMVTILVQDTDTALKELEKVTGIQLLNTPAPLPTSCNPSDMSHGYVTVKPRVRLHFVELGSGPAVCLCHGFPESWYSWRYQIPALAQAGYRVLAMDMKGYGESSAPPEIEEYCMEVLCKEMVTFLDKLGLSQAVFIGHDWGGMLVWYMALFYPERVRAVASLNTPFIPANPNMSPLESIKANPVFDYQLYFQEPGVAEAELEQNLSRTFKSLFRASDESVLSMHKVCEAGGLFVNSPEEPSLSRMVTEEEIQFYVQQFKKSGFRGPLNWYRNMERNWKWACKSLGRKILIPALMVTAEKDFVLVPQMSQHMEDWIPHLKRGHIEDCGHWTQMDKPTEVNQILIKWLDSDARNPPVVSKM

Rattus norvegicus = experiment: Antinociceptive activity in carrageenan-induced inflammatory pain Sprague-Dawley rat model assessed as increase in mechanical withdrawal threshold at 50 mg/kg, ip by von-frey filament assay; type: functional, organism-based
[2] = Microsomal stability in dog liver microsomes assessed as half life; type: ADME, Canis lupus familiaris, Microsome
[3] = Microsomal stability in human liver microsomes assessed as half life; type: ADME, Microsome
[4] = Microsomal stability in rat liver microsomes assessed as half life; type: ADME, Microsome
[5] = Microsomal stability in mouse liver microsomes assessed as half life; type: ADME, Microsome

## Cc1cc(C(=O)Nc2ccc(Cl)cc2)ccc1N(CCN1CCS(=O)(=O)CC1)C(=O)Nc1ccc(Cl)cc1
[1]
  inhibition: 95.2%

## O=C(NC12CC3CC(CC(C3)C1)C2)N[C@H]1CC[C@H](Oc2ccc(C(=O)O)cc2)CC1
Rattus norvegicus
  Activity: Active

## Cc1cc(C(=O)Nc2ccc3c(c2)OCO3)ccc1N(CCN1CCCC1=O)C(=O)Nc1ccc(Cl)cc1
[2]
  half-life: 3.3 min
[3]
  half-life: 3.9 min
[1]
  inhibition: 92.7%

## Cc1cc(C(=O)Nc2ccc(Cl)cc2)ccc1NC(=O)Nc1ccc(Cl)cc1
[1]
  inhibition: 80.3%

## Cc1cc(C(=O)Nc2ccc(F)cn2)ccc1N(CCN1CCCC1=O)C(=O)Nc1ccc(Cl)cc1
[4]
  half-life: 3.1 min
[2]
  half-life: 3.1 min
[3]
  half-life: 4 min
[1]
  inhibition: 94.5%
[5]
  half-life: 3.7 min

## Cc1cc(C(=O)Nc2cnccn2)ccc1N(CCN1CCOCC1)C(=O)Nc1ccc(Cl)cc1
[1]
  inhibition: 62.3%

## Cc1cc(C(=O)Nc2ccc(Cl)cc2)ccc1N(CCN1CCOC[C@@H]1C)C(=O)Nc1ccc(Cl)cc1
[1]
  inhibition: 63.1%

## Cc1cc(C(=O)Nc2ccc(Cl)cc2)ccc1N(CCN1CCOCC1=O)C(=O)Nc1ccc(Cl)cc1
[4]
  half-life: 10.7 min
[2]
  half-life: 12.9 min
[3]
  half-life: 9.1 min
[1]
  inhibition: 93.9%
[5]
  half-life: 8.9 min

## Cc1cc(C(=O)Nc2ccc(Cl)cc2)ccc1N(CCN1CCCCC1)C(=O)Nc1ccc(Cl)cc1
[1]
  inhibition: 92.5%

## Cc1cc(C(=O)Nc2ccc(Cl)cc2)ccc1N(CC(=O)N1CCOCC1)C(=O)Nc1ccc(Cl)cc1
[4]
  half-life: 45.9 min
[2]
  half-life: 37 min
[3]
  half-life: 31.9 min
[1]
  inhibition: 95.7%
[5]
  half-life: 28.3 min

## Cc1cc(C(=O)Nc2ccc(Cl)cc2)ccc1N(CC(C)C)C(=O)Nc1ccc(Cl)cc1
[1]
  inhibition: 69.4%

## Cc1cc(C(=O)Nc2ccc(Cl)cc2)ccc1N(CCO)C(=O)Nc1ccc(Cl)cc1
[1]
  inhibition: 74.3%

## COCCN(C(=O)Nc1ccc(Cl)cc1)c1ccc(C(=O)Nc2ccc(Cl)cc2)cc1C
[1]
  inhibition: 70.5%

## Cc1cc(C(=O)Nc2ccc(Cl)cc2)ccc1N(CCN(C)C)C(=O)Nc1ccc(Cl)cc1
[1]
  inhibition: 67.7%

## Cc1cc(C(=O)Nc2ccc(Cl)cc2)ccc1N(CCN1CC[S+]([O-])CC1)C(=O)Nc1ccc(Cl)cc1
[1]
  inhibition: 90.4%

## Cc1cc(C(=O)Nc2ccc(Cl)cc2)ccc1N(CCN1CCSCC1)C(=O)Nc1ccc(Cl)cc1
[1]
  inhibition: 83.7%

## Cc1cc(C(=O)Nc2ccc(Cl)cc2)ccc1N(CCN1CCCC1)C(=O)Nc1ccc(Cl)cc1
[4]
  half-life: 27.3 min
[2]
  half-life: 137 min
[3]
  half-life: 197 min
[1]
  inhibition: 98.5%
Rattus norvegicus
  Activity: Active
[5]
  half-life: 35.8 min

## Cc1cc(C(=O)Nc2ccc(Cl)cc2)ccc1N(CCN1CCOC[C@H]1C)C(=O)Nc1ccc(Cl)cc1
[1]
  inhibition: 67.1%

## Cc1cc(C(=O)Nc2cnn(C)c2)ccc1N(CCN1CCOCC1)C(=O)Nc1ccc(Cl)cc1
[1]
  inhibition: 87.7%

## Cc1cc(C(=O)Nc2ccc(F)cn2)ccc1N(CCN1CCCC1)C(=O)Nc1ccc(Cl)cc1
[4]
  half-life: 16 min
[2]
  half-life: 33.5 min
[3]
  half-life: 27.5 min
[1]
  inhibition: 94.8%
[5]
  half-life: 26.2 min

## Cc1cc(C(=O)Nc2ccccn2)ccc1N(CCN1CCOCC1)C(=O)Nc1ccc(Cl)cc1
[1]
  inhibition: 85.8%

## Cc1cc(C(=O)Nc2ccc(Cl)cc2)ccc1N(CCN1CCCC1=O)C(=O)Nc1ccc(Cl)cc1
[4]
  half-life: 4.5 min
[2]
  half-life: 11 min
[3]
  half-life: 9.5 min
[1]
  inhibition: 98.9%
[5]
  half-life: 8.8 min

## Cc1cc(C(=O)Nc2ccc(C(F)(F)F)nc2)ccc1N(CCN1CCOCC1)C(=O)Nc1ccc(Cl)cc1
[4]
  half-life: 5.4 min
[2]
  half-life: 5.4 min
[3]
  half-life: 5.8 min
[1]
  inhibition: 87.8%
[5]
  half-life: 7.7 min

## Cc1ccc(-c2cc(C(F)(F)F)nn2-c2ccc(S(N)(=O)=O)cc2)cc1
Rattus norvegicus
  Activity: Active

## Cc1cc(C(=O)Nc2nccs2)ccc1N(CCN1CCOCC1)C(=O)Nc1ccc(Cl)cc1
[1]
  inhibition: 62.8%

## Cc1cc(C(N)=O)ccc1N(CCN1CCOCC1)C(=O)Nc1ccc(Cl)cc1
[1]
  inhibition: 75.9%

## Cc1cc(C(=O)Nc2ccc3c(c2)OCO3)ccc1N(CCN1CCOCC1)C(=O)Nc1ccc(Cl)cc1
[2]
  half-life: 5.2 min
[3]
  half-life: 6.9 min
[1]
  inhibition: 95.6%
[5]
  half-life: 4 min

## Cc1cc(C(=O)Nc2ccc3c(c2)OCO3)ccc1N(CCN1CCCC1)C(=O)Nc1ccc(Cl)cc1
[1]
  inhibition: 83.3%

## Cc1cc(C(=O)Nc2ccc(F)cn2)ccc1N(CCN1CCOCC1)C(=O)Nc1ccc(Cl)cc1
[1]
  inhibition: 97.8%

## Cc1cc(C(=O)Nc2ccc(C#N)cc2)ccc1N(CCN1CCOCC1)C(=O)Nc1ccc(Cl)cc1
[1]
  inhibition: 64%

## CCN(CC)CCN(C(=O)Nc1ccc(Cl)cc1)c1ccc(C(=O)Nc2ccc(Cl)cc2)cc1C
[1]
  inhibition: 67.2%

## CC(=O)c1ccc(NC(=O)c2ccc(N(CCN3CCOCC3)C(=O)Nc3ccc(Cl)cc3)c(C)c2)cc1
[1]
  inhibition: 84.5%

Source: ChEMBL document CHEMBL5126572, “Synthesis and biological evaluation of new series of benzamide derivatives containing urea moiety as sEH inhibitors” (Bioorg Med Chem Lett, 2022)
